Test system: C57BL6/J mice
Assay: Murine model: liver damage induced with acetaminophen, serum markers by SPR antibody array and Western blot
Assay type: in vivo
Settings: male C57BL6/J mice, 300 mg/kg intraperitoneally
Protocol: The effectiveness of various proteins as markers was tested by inducing liver damage in mice using acetaminophen and then assessing serum for various proteins by surface plasmon resonance (SPR) detection of complex formation with the relevant antibody and confirmed by Western blot. The known marker, AST, was used as a control.
Nine week old male C57BL6/J mice were fasted for 24 hours and then administered 300 mg/kg acetaminophen intraperitoneally. The mice were euthanized with CO2 and whole blood was collected via cardiac puncture at various time intervals. The whole blood was incubated at 4° C. for 12 hours and centrifuged at 2,000 g for 10 minutes to obtain serum which was stored at −80° C. and then analyzed by SPR antibody array as described above and validated by Western blot. (The concentration of the known marker serum […] (AST) was determined by enzymatic assay.)

Compound: CC(=O)Nc1ccc(O)cc1 [acetaminophen]
- plasma levels of plasminogen and RBP4 (Western blot, FIG. 3) (12-24 hours): decrease
- serum levels of control marker AST (enzymatic assay) (same time as the novel markers): corresponding increase
- plasma level of the 12 markers whose level increases in the event of liver injury (Western blot, FIG. 3) (fasted 24 hours, after 12-24 hours, after which the levels declined): elevated levels

Reference: US8632982B2, “Biomarkers for liver injury” (Institute for Systems Biology, priority 2009, dated 2014)
